# What was measured:
# Experiment in all cases: greenhouse post-emergence herbicidal test
# [1] = test system: GERDI; assay type: in vivo, Geranium dissectum; set-up: key to herbicidal activity against GERDI found: rating on a scale from 0 to 100; settings: for herbicidal activity against GERDI found: I.1 62.5 g/ha
# Protocol: (§1) The culture containers used were plastic pots containing medium loamy sand with approximately 4.6% of humus and 69.9% sand as substrate. The seeds of the test plants were sown separately for each species.
# (§2) For the post-emergence treatment, the test plants were grown to a plant height of from 1 to 15 cm, depending on the plant habit, and only then treated with the active compounds which had been suspended or emulsified in water. To this end, the test plants were either sown directly, and grown in the same containers, or they were first grown separately as seedlings and transplanted into the test containers a few days prior to treatment.
# (§3) Depending on the species, the plants were kept at 10-25° C. and 20-35° C., respectively.
# (§4) The test period extended over 1 to 3 weeks. During this time, the plants were tended and their response to the individual treatments was evaluated 20 days after treatment except mentioned otherwise.
# (§5) Evaluation was carried out using a scale from 0 to 100. 100 means no emergence of the plants, or complete destruction of at least the above-ground parts, and 0 means no damage or normal course of growth.
# (§6) The respective stated components A and B, and, if appropriate, C, were formulated as a 10% by weight strength emulsion concentrate and, with addition of the amount of solvent system, introduced into the spray liquor used for applying the active compound. In the examples, the solvent used was water.
# (§7) In the examples below, using the method of S. R. Colby (1967) “Calculating synergistic and antagonistic responses of herbicide combinations”, Weeds 15, p. 22 ff., the value E, which is expected if the activity of the individual active compounds is only additive, was calculated. E=X+Y−(X·Y/100)
# [2] = test system: ALOMY; assay type: in vivo, Alopecurus myosuroides; set-up: key to herbicidal activity against ALOMY found: rating on a scale from 0 to 100; settings: for herbicidal activity against ALOMY found: post emergence, I.1 62.5 g/ha
# Protocol: as §1, §2, §3, §4, §5, §6, §7
# [3] = test system: PAPRH; assay type: in vivo, Papaver rhoeas; set-up: key: rating on a scale from 0 to 100
# Protocol: as §1, §2, §3, §4, §5, §6, §7
# [4] = test system: ABUTH; assay type: in vivo, Abutilon theophrast; set-up: key to herbicidal activity against ABUTH found: rating on a scale from 0 to 100
# Protocol: as §1, §2, §3, §4, §5, §6, §7
# [5] = test system: KCHSC; assay type: in vivo, Kochia scoparia; set-up: key to herbicidal activity against KCHSC found: rating on a scale from 0 to 100; settings: for herbicidal activity against KCHSC found: post emergence, B.88 1 g/ha a.i.
# Protocol: as §1, §2, §3, §4, §5, §6, §7
# [6] = test system: APESV; assay type: in vivo, Apera spica-venti; set-up: key to herbicidal activity against APESV found: rating on a scale from 0 to 100; settings: post emergence
# Protocol: as §1, §2, §3, §4, §5, §6, §7
# [7] = test system: ECHCG; assay type: in vivo, Echinochloa crus-galli; set-up: key to herbicidal activity against ECHCG found / herbicidal activity against ECHCH found: scale 0 to 100
# Protocol: as §1, §2, §3, §4, §5, §6, §7
# [8] = test system: MATCH; assay type: in vivo, Matricaria recutita; set-up: key to herbicidal activity against MATCH found: rating on a scale from 0 to 100
# Protocol: as §1, §2, §3, §4, §5, §6, §7
# [9] = test system: POLCO; assay type: in vivo, Polygonum convolvulus; set-up: key to herbicidal activity against POLCO found: rating on a scale from 0 to 100; settings: for herbicidal activity against POLCO found: post emergence, 20 days after treatment
# Protocol: as §1, §2, §3, §4, §5, §6, §7
# [10] = test system: IPOHE; assay type: in vivo, Ipomoea hederacea; set-up: key to herbicidal activity against IPOHE found: rating on a scale from 0 to 100
# Protocol: as §1, §2, §3, §4, §5, §6, §7
# [11] = test system: ERICA; assay type: in vivo, Conyza canadensis; set-up: key to herbicidal activity against ERICA found: rating on a scale from 0 to 100; settings: post emergence
# Protocol: as §1, §2, §3, §4, §5, §6, §7
# [12] = test system: VIOAR; assay type: in vivo, Viola arvensis; settings: Viola arvensis, post-emergence, read-out: herbicidal activity against VIOAR found
# Protocol: as §1, §2, §3, §4, §5, §6, §7
# [13] = test system: GALAP; assay type: in vivo, Galium aparine; settings: Galium aparine, post-emergence, 480 h, read-out: herbicidal activity against GALAP found
# Protocol: as §1, §2, §3, §4, §5, §6, §7
# [14] = I.1 31.25 g/ha, B.88 1 g/ha a.i.
# [15] = I.1 31.25 g/ha, B.88 2 g/ha a.i.
# [16] = I.1 62.5 g/ha, B.88 1 g/ha a.i.
# [17] = I.1 62.5 g/ha, B.88 2 g/ha a.i.
# [18] = I.1 62.5 g/ha, B.57 2 g/ha a.i.
# [19] = Geranium dissectum, post-emergence, 480 h, read-out: herbicidal activity against GERDI found
smiles,measurement,setting,value
"C#CCN1C(=O)COc2cc(F)c(N3C(=O)C4=C(CCCC4)C3=O)cc21 [B.88, flumioxazin]",herbicidal activity against GERDI found,"[1]; post emergence, B.88 1 g/ha a.i.",70
same,herbicidal activity against GERDI found,"[1]; post emergence, B.88 2 g/ha a.i.",70
same,herbicidal activity against ALOMY found,[2]; B.88 1 g/ha a.i.,0
same,herbicidal activity against ALOMY found,[2]; B.88 2 g/ha a.i.,20
same,herbicidal activity against PAPRH found,"[3]; I.1 15.62 g/ha, B.88 2 g/ha a.i.",75
same,herbicidal activity against PAPRH found,[3]; [14],25
same,herbicidal activity against PAPRH found,[3]; [15],75
same,herbicidal activity against PAPRH found,[3]; [16],25
same,herbicidal activity against PAPRH found,[3]; [17],75
same,herbicidal activity against ABUTH found,"[4]; post emergence, I.1 31.25 g/ha, B.88 1 g/ha a.i.",90
same,herbicidal activity against KCHSC found,[5]; I.1 15.62 g/ha,85
same,herbicidal activity against KCHSC found,[5]; I.1 31.25 g/ha,85
same,herbicidal activity against KCHSC found,[5]; I.1 62.5 g/ha,85
same,herbicidal activity against APESV found,"[6]; I.1 15.62 g/ha, B.88 1 g/ha a.i.",25
same,herbicidal activity against APESV found,[6]; [14],25
same,herbicidal activity against APESV found,[6]; [15],65
same,herbicidal activity against APESV found,[6]; [16],25
same,herbicidal activity against APESV found,[6]; [17],65
COC(=O)c1c(Cl)nn(C)c1S(=O)(=O)NC(=O)Nc1nc(OC)cc(OC)n1 [halosulfuron-methyl],pest or weed control at 5 g/ha,"[7]; Echinochloa crus-galli, post-emergence, 480 h, read-out: herbicidal activity against ECHCG found",45%
same,pest or weed control at 5 g/ha,"[2]; Alopecurus myosuroides, post-emergence, 480 h, read-out: herbicidal activity against ALOMY found",10%
"CSc1nnc(C(C)(C)C)c(=O)n1N [B.79, metribuzin]",herbicidal activity against ECHCG found,"[7]; post emergence, a.i. g/ha: I.1 62.5, B.79 25, 20 days after treatment",20%
same,herbicidal activity against MATCH found,"[8]; post emergence, a.i. g/ha: I.1 20.8, B.79 25, 20 days after treatment",65%
same,herbicidal activity against POLCO found,"[9]; a.i. g/ha: I.1 20.8, B.79 25",20%
same,herbicidal activity against POLCO found,"[9]; a.i. g/ha: I.1 62.5, B.79 25",20%
"CCS(=O)(=O)c1cccnc1S(=O)(=O)NC(=O)Nc1nc(OC)cc(OC)n1 [B.59, rimsulfuron]",pest or weed control at 0.5 g/ha,"[1]; Geranium dissectum, post-emergence, 480 h, post emergence, 0.5 g/ha a.i., read-out: herbicidal activity against GERDI found",75%
same,pest or weed control at 0.5 g/ha,"[10]; Ipomoea hederacea, post-emergence, 480 h, post emergence, 0.5 g/ha a.i., read-out: herbicidal activity against IPOHE found",90%
same,herbicidal activity against PAPRH found,[3]; 0.5 g/ha a.i.,65
same,pest or weed control at 0.5 g/ha,"[8]; Matricaria chamomilla, post-emergence, 480 h, post emergence, 0.5 g/ha a.i., read-out: herbicidal activity against MATCH found",75%
same,pest or weed control at 0.5 g/ha,"[11]; Erigeron canadensis, post-emergence, 480 h, 0.5 g/ha a.i., read-out: herbicidal activity against ERICA found",65%
"COc1cc(OC)n2nc(NS(=O)(=O)c3c(C(F)(F)F)ccnc3OC)nc2n1 [B.57, pyroxsulam]",herbicidal activity against IPOHE found,"[10]; post emergence, I.1 62.5 g/ha, B.57 1 g/ha a.i.",80
same,herbicidal activity against PAPRH found,[3]; [18],0
same,herbicidal activity against ERICA found,[11]; [18],75
"CP(=O)(O)CCC(N)C(=O)O (stereo not drawn) [B.120, glufosinate-ammonium]",pest or weed control at 62.5 g/ha,[1]; [19],40%
same,pest or weed control at 125 g/ha,[1]; [19],90%
same,pest or weed control at 62.5 g/ha,"[10]; Ipomoea hederacea, post-emergence, 480 h, read-out: herbicidal activity against IPOHE found",80%
same,herbicidal activity against PAPRH found,[3]; 62.5 g/ha a.i.,30
same,pest or weed control at 125 g/ha,[12],15%
same,pest or weed control at 62.5 g/ha,"[8]; Matricaria chamomilla, post-emergence, 480 h, read-out: herbicidal activity against MATCH found",55%
same,pest or weed control at 125 g/ha,"[4]; Abutilon theophrasti, post-emergence, 480 h, read-out: herbicidal activity against ABUTH found",70%
same,pest or weed control at 125 g/ha,[13],80%
same,pest or weed control at 62.5 g/ha,"[5]; Bassia scoparia, post-emergence, 480 h, read-out: herbicidal activity against KCHSC found",45%
same,pest or weed control at 125 g/ha,"[9]; Fallopia convolvulus, post-emergence, 480 h, read-out: herbicidal activity against POLCO found",65%
